Data from patent US8680159B2, “Bradykinin 1 receptor modulating compounds” (Gruenenthal GmbH, priority 2010, dated 2014).

molecular target: T1, human B1R receptor (CHO K1 cells stably transfected with the human B1R gene) (Homo sapiens, UniProt P46663); experiment: Functional study on the bradykinin receptor 1 (B1R), Ca2+ fluorescence (Fluo-4) FLIPR/Novostar assay, hB1R cells; type: cell-based; conditions: CHO-K1, read-out: % Inhibition (h-B1R) at 10 μM
T1 construct: expressed in transfected cells; host or cells: CHO K1 cells (Chinese hamster ovary), stably transfected
T1 sequence (P46663 1-353): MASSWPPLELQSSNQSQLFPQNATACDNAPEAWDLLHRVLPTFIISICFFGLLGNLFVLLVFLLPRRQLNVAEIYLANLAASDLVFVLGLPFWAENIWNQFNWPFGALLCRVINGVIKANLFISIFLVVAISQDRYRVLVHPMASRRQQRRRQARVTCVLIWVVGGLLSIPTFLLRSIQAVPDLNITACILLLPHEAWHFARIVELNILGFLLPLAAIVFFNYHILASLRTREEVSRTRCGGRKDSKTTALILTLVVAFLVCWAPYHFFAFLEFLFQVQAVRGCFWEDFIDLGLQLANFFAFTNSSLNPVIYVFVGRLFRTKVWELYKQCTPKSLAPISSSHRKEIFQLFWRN
Protocol: The agonistic or antagonistic action of substances can be quantified on the bradykinin receptor 1 (B1R) of the species human and rat using ectopically expressing cell lines (CHO K1 cells) and with the aid of a Ca^2+-sensitive dye (Fluo-4) using a fluorescent imaging plate reader (FLIPR). The indication in % activation is based on the Ca^2+ signal after addition of Lys-Des-Arg^9-bradykinin (0.5 nM) or Des-Arg^9-bradykinin (100 nM). Antagonists lead to suppression of the Ca^2+ influx after the addition of the agonist. % Inhibition compared with the maximum achievable inhibition is indicated.
The agonistic or antagonistic action of substances can be determined on the bradykinin receptor 1 (B1R) of the species human and rat using the following assay. According to this assay, the increase in intracellular Ca^2+ following administration of a B1R agonist is quantified with the aid of a Ca^2+-sensitive dye (Fluo-4 type, Molecular Probes Europe BV, Leiden, Netherlands) using a Fluorescent Imaging Plate Reader (FLIPR, Molecular Devices, Sunnyvale, USA) and/or using a Novostar (BMG Labtech GmbH, Offenburg, Germany).
Chinese hamster ovary cells (CHO K1 cells) which have been stably transfected with the human B1R gene (hB1R cells) or with the B1R gene of the rat (rB1R cells) are used. For functional studies, the cells are plated out on black 96-well plates having a clear base (BD Biosciences, Heidelberg, Germany or Greiner, Frickenhausen, Germany) in a density of 20,000-35,000 cells/well. The cells are left overnight at 37° C. and with 5% CO2 in culture medium (hB1R cells: Nutrient Mixture Ham's F12, Gibco Invitrogen GmbH, Karlsruhe, Germany or DMEM, Sigma-Aldrich, Taufkirchen, Germany; rB1R cells: D-MEM/F12, Gibco Invitrogen GmbH, Karlsruhe, Germany), with 10 vol. % FBS (fetal bovine serum, Gibco Invitrogen GmbH, Karlsruhe, Germany or PAN Biotech GmbH, Aidenbach, Germany). On the following day, the cells are loaded for 60 minutes at 37° C. with 2.13 μM Fluo-4 (Molecular Probes Europe BV, Leiden, Netherlands) in HBSS buffer (Hank's buffered saline solution, Gibco Invitrogen GmbH, Karlsruhe, Germany) […] (Sigma-Aldrich, Taufkirchen, Germany) and 10 mM HEPES (Sigma-Aldrich, Taufkirchen, Germany). The plates are then washed twice with HBSS buffer, and HBSS buffer additionally containing 0.1% BSA (bovine serum albumin; Sigma-Aldrich, Taufkirchen, Germany), 5.6 mM glucose and 0.05% gelatin (Merck KGaA, Darmstadt, Germany) is added to the plates. After incubation for a further 20 minutes at room temperature, the plates are inserted into the FLIPR or Novostar for Ca^2+ measurement. Alternatively, washing is carried out with buffer A (15 mM HEPES, 80 mM NaCl, 5 mM KCl, 1.2 mM CaCl2, 0.7 mM MgSO4, 2 g/l glucose, 2.5 mM probenecid) followed by loading with buffer A with added 2.5 μM Fluo-4 and 0.025% Pluronic F127 (Sigma-Aldrich, Taufkirchen, Germany). The cells are then washed twice with buffer A and incubated for 30 minutes at room temperature with buffer A additionally containing 0.05% BSA and 0.05% gelatin and are then inserted into the FLIPR or Novostar for Ca^2+ measurement. The Ca^2+-dependent fluorescence is measured before and after the addition of substances (λex=488 nm, λem=540 nm). Quantification is carried out by measuring the highest fluorescence intensity (FC, fluorescence counts) over time.
The FLIPR protocol consists of 2 substance additions, which are pipetted in the FLIPR. In the case of measurements using the Novostar, only the second substance addition is pipetted in the device. Both devices measure the fluorescence intensity over time. Test substances (10 μM) are first pipetted onto the cells and the intracellular Ca^2+ increase is compared with the control (hB1R: Lys-Des-Arg^9-bradykinin>=50 nM; rB1R: Des-Arg^9-bradykinin>=1 μM). This gives the % activation, based on the Ca^2+ signal after addition of Lys-Des-Arg^9-bradykinin (>=50 nM) or Des-Arg^9-bradykinin (>=1 μM). […]

| SMILES | inhibition at 10 µM |
| --- | --- |
| Cc1cc(N2CCC(N(C)C(=O)c3ccc4c(c3)C(N(C)C(=O)c3c(Cl)cccc3C(F)(F)F)CC4)CC2)cc(C)n1 (stereo not drawn) [CC_H-108, 3-[[2-Chloro-6-(trifluoromethyl)-benzoyl]-methyl-amino]-N-[1-(2,6-dimethyl-pyridin-4-yl)-piperidin-4-yl]-N-methyl-2,3-dihydro-1H-indene-5-carboxylic acid amide] | 91% |
| Cc1cc(N2CCC(N(C)C(=O)c3ccc4c(c3)C(NC(=O)c3sccc3Cl)CC4)CC2)cc(C)n1 (stereo not drawn) [CC_H-109, 3-Chloro-N-[6-[[1-(2,6-dimethyl-pyridin-4-yl)-piperidin-4-yl]-methyl-carbamoyl]-2,3-dihydro-1H-inden-1-yl]-thiophene-2-carboxylic acid amide] | 100% |
| Cc1cc(N2CCC(N(C)C(=O)c3ccc4c(c3)C(NS(=O)(=O)c3c(Cl)cccc3C(F)(F)F)CC4)CC2)cc(C)n1 (stereo not drawn) [CC_H-111, 3-[[[2-Chloro-6-(trifluoromethyl)-phenyl]sulfonyl]amino]-N-[1-(2,6-dimethyl-pyridin-4-yl)-piperidin-4-yl]-N-methyl-2,3-dihydro-1H-indene-5-carboxylic acid amide] | 100% |
| Cc1cc(N2CCC(N(C)C(=O)c3ccc4c(c3)C(NC(=O)c3cnccc3C(F)(F)F)CC4)CC2)cc(C)n1 (stereo not drawn) [CC_H-112, N-[6-[[1-(2,6-Dimethyl-pyridin-4-yl)-piperidin-4-yl]-methyl-carbamoyl]-2,3-dihydro-1H-inden-1-yl]-4-(trifluoromethyl)-pyridine-3-carboxylic acid amide] | 100% |
| Cc1cc(N2CCC(N(C)C(=O)c3ccc4c(c3)C(NC(=O)c3c(C)cccc3C)CC4)CC2)cc(C)n1 (stereo not drawn) [CC_H-115, 3-[(2,6-Dimethyl-benzoyl)amino]-N-[1-(2,6-dimethyl-pyridin-4-yl)-piperidin-4-yl]-N-methyl-2,3-dihydro-1H-indene-5-carboxylic acid amide] | 99% |
| O=C(NCCC1CCN(c2ccncc2)CC1)c1ccc2c(c1)C(NC(=O)C1CCCCC1)CC2 (stereo not drawn) [CC_H-116, 3-(Cyclohexanecarbonylamino)-N-[2-(1-pyridin-4-yl-piperidin-4-yl)-ethyl]-2,3-dihydro-1H-indene-5-carboxylic acid amide] | 92% |
| Cc1cc(N2CCC(N(C)C(=O)c3ccc4c(c3)C(NC(=O)c3cncnc3)CC4)CC2)cc(C)n1 (stereo not drawn) [CC_H-118, N-[6-[[1-(2,6-Dimethyl-pyridin-4-yl)-piperidin-4-yl]-methyl-carbamoyl]-2,3-dihydro-1H-inden-1-yl]-pyrimidine-5-carboxylic acid amide] | 89% |
| Cc1cc(N2CCC(N(C)C(=O)c3ccc4c(c3)C(NC(=O)c3cc(F)ccc3Cl)CC4)CC2)cc(C)n1 (stereo not drawn) [CC_H-119, 3-[(2-Chloro-5-fluoro-benzoyl)amino]-N-[1-(2,6-dimethyl-pyridin-4-yl)-piperidin-4-yl]-N-methyl-2,3-dihydro-1H-indene-5-carboxylic acid amide] | 100% |
| Cc1cc(N2CCC(N(C)C(=O)c3ccc4c(c3)C(NC(=O)CCC3CCCC3)CC4)CC2)cc(C)n1 (stereo not drawn) [CC_H-120, 3-(3-Cyclopentyl-propanoylamino)-N-[1-(2,6-dimethyl-pyridin-4-yl)-piperidin-4-yl]-N-methyl-2,3-dihydro-1H-indene-5-carboxylic acid amide] | 100% |
| Cc1cc(N2CCC(N(C)C(=O)c3ccc4c(c3)C(NS(=O)(=O)Cc3ccccc3C(F)(F)F)CC4)CC2)cc(C)n1 (stereo not drawn) [CC_H-121, N-[1-(2,6-Dimethyl-pyridin-4-yl)-piperidin-4-yl]-N-methyl-3-[[[2-(trifluoromethyl)-phenyl]-methylsulfonyl]amino]-2,3-dihydro-1H-indene-5-carboxylic acid amide] | 100% |
| Cc1cc(N2CCC(N(C)C(=O)c3ccc4c(c3)C(NC(=O)CC(C)C)CC4)CC2)cc(C)n1 (stereo not drawn) [CC_H-122, N-[1-(2,6-Dimethyl-pyridin-4-yl)-piperidin-4-yl]-N-methyl-3-(3-methyl-butanoylamino)-2,3-dihydro-1H-indene-5-carboxylic acid amide] | 100% |
| Cc1cc(N2CCC(N(C)C(=O)c3ccc4c(c3)C(NC(=O)C3CCCCC3)CC4)CC2)cc(C)n1 (stereo not drawn) [CC_H-123, 3-(Cyclohexanecarbonylamino)-N-[1-(2,6-dimethyl-pyridin-4-yl)-piperidin-4-yl]-N-methyl-2,3-dihydro-1H-indene-5-carboxylic acid amide] | 100% |
| CN(C(=O)c1ccc2c(c1)C(NC(=O)c1cncnc1)CCO2)C1CCN(c2ccncc2)CC1 (stereo not drawn) [CC_H-124, N-[6-[Methyl-(1-pyridin-4-yl-piperidin-4-yl)-carbamoyl]-3,4-dihydro-2H-chromen-4-yl]-pyrimidine-5-carboxylic acid amide] | 68% |
| CN(C(=O)c1ccc2c(c1)C(NS(=O)(=O)Cc1ccccc1C(F)(F)F)CCC2)C1CCN(c2ccncc2)CC1 (stereo not drawn) [CC_H-125, N-Methyl-N-(1-pyridin-4-yl-piperidin-4-yl)-8-[[[2-(trifluoromethyl)-phenyl]-methylsulfonyl]amino]-5,6,7,8-tetrahydro-naphthalene-2-carboxylic acid amide] | 100% |
| CN(C(=O)NC1CCc2cc(C(=O)N(C)C3CCN(c4ccncc4)CC3)ccc21)c1ccccc1Cl (stereo not drawn) [CC_H-126, 1-[[(2-Chlorophenyl)-methyl-carbamoyl]amino]-N-methyl-N-(1-pyridin-4-yl-piperidin-4-yl)-2,3-dihydro-1H-indene-5-carboxylic acid amide] | 100% |
| CN(C(=O)c1ccc2c(c1)CCC2NC(=O)c1c(Cl)cccc1C(F)(F)F)C1CCN(c2ccncc2)CC1 (stereo not drawn) [CC_H-127, 1-[[2-Chloro-6-(trifluoromethyl)-benzoyl]amino]-N-methyl-N-(1-pyridin-4-yl-piperidin-4-yl)-2,3-dihydro-1H-indene-5-carboxylic acid amide] | 95% |
| O=C(NCCC1CCN(c2ccncc2)CC1)c1ccc2c(c1)C(NS(=O)(=O)Cc1ccccc1C(F)(F)F)CC2 (stereo not drawn) [CC_H-128, N-[2-(1-Pyridin-4-yl-piperidin-4-yl)-ethyl]-3-[[[2-(trifluoromethyl)-phenyl]-methylsulfonyl]amino]-2,3-dihydro-1H-indene-5-carboxylic acid amide] | 99% |
| Cc1cc(N2CCC(N(C)C(=O)c3ccc4c(c3)C(N(C)S(=O)(=O)Cc3ccccc3C(F)(F)F)CC4)CC2)cc(C)n1 (stereo not drawn) [CC_H-129, N-[1-(2,6-Dimethyl-pyridin-4-yl)-piperidin-4-yl]-N-methyl-3-[methyl-[[2-(trifluoromethyl)-phenyl]-methylsulfonyl]-amino]-2,3-dihydro-1H-indene-5-carboxylic acid amide] | 100% |
